Measurements reported in PubChem BioAssay (NCI).
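Where inhibition never reached the appropriate level, the endpoint shown equals the highest concentration tested. Otherwise, values were interpolated linearly from a five-concentration, 48-hour dose response in 96-well plates. At the TGI there is no net growth.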

Key:
Test in all cases: NCI anticancer screen, dose series, 48 h
[1] = tested on: MALME-3M melanoma
[2] = tested on: SNB-75 CNS
[3] = tested on: 786-0 renal
[4] = tested on: A549 NSCLC
[5] = tested on: SF-295 CNS
[6] = tested on: TK-10 renal
[7] = tested on: SK-OV-3 ovarian
[8] = tested on: T-47D breast
[9] = tested on: NCI-H522 lung
[10] = tested on: SK-MEL-2 melanoma
[11] = tested on: KM12 colon
[12] = tested on: SN12C renal
[13] = tested on: RXF 393 renal
[14] = tested on: PC-3 prostate
[15] = tested on: COLO 205 colon
[16] = tested on: BT-549 breast
[17] = tested on: UACC-257 melanoma
[18] = tested on: DU-145 prostate
[19] = tested on: HS 578T breast
[20] = tested on: K-562 leukemia
[21] = tested on: MDA-MB-231 breast
[22] = tested on: A498 renal
[23] = tested on: NCI/ADR-RES ovarian
[24] = tested on: SF-268 CNS
[25] = tested on: ACHN renal
[26] = tested on: CAKI-1 renal
[27] = tested on: SK-MEL-5 melanoma
[28] = tested on: OVCAR-4 ovarian
[29] = tested on: IGROV1 ovarian
[30] = tested on: NCI-H226 lung
[31] = tested on: MDA-MB-435
[32] = tested on: HOP-92 NSCLC
[33] = tested on: M14 melanoma
[34] = tested on: U251 CNS
[35] = tested on: HT29 colon
[36] = tested on: OVCAR-5 ovarian
[37] = tested on: SNB-19 CNS
[38] = tested on: SR leukemia
[39] = tested on: NCI-H460 lung
[40] = tested on: UO-31 renal
[41] = tested on: SK-MEL-28 melanoma
[42] = tested on: MDA-N
[43] = tested on: HCT-15 colon
[44] = tested on: HCT-116 colon
[45] = tested on: NCI-H23 lung
[46] = tested on: MOLT-4 leukemia
[47] = tested on: UACC-62 melanoma
[48] = tested on: OVCAR-8 ovarian
[49] = tested on: RPMI-8226 leukemia
[50] = tested on: SW-620 colon
[51] = tested on: HOP-62 NSCLC
[52] = tested on: HCC-2998 colon
[53] = tested on: OVCAR-3 ovarian
[54] = tested on: LOX IMVI melanoma
[55] = tested on: MCF7 breast
[56] = tested on: EKVX NSCLC
[57] = tested on: SF-539 CNS
[58] = tested on: HL-60(TB) leukemia
[59] = tested on: CCRF-CEM leukemia

Work on `Nc1nc(Cl)cc(NCCO)n1` yielded a TGI [1] greater than 100 µM, a TGI [2] greater than 100 µM and a TGI [3] greater than 100 µM. The TGI [4] was greater than 100 µM, the TGI [5] was greater than 100 µM and the TGI [6] was greater than 100 µM. The TGI [7] was greater than 100 µM, the TGI [8] was greater than 100 µM and the TGI [9] was greater than 100 µM. For the same compound, the TGI [10] was greater than 100 µM, the TGI [11] was greater than 100 µM and the TGI [12] was greater than 100 µM. For the same compound, the TGI [13] was greater than 100 µM, the TGI [14] was greater than 100 µM and the TGI [15] was greater than 100 µM. For the same compound, the TGI [16] was greater than 100 µM, the TGI [17] was greater than 100 µM and the TGI [18] was greater than 100 µM. For the same compound, the TGI [19] was greater than 100 µM, the TGI [20] was greater than 100 µM and the TGI [21] was greater than 100 µM. It also gave a TGI [22] greater than 100 µM, a TGI [23] greater than 100 µM and a TGI [24] greater than 100 µM. For the same compound, the TGI [25] was greater than 100 µM, the TGI [26] was greater than 100 µM and the TGI [27] was greater than 100 µM. It also gave a TGI [28] greater than 100 µM, a TGI [29] greater than 100 µM and a TGI [30] greater than 100 µM. It also gave a TGI [31] greater than 100 µM, a TGI [32] greater than 100 µM and a TGI [33] greater than 100 µM. It also gave a TGI [34] greater than 100 µM, a TGI [35] greater than 100 µM and a TGI [36] greater than 100 µM. For the same compound, the TGI [37] was greater than 100 µM, the TGI [38] was greater than 100 µM and the TGI [39] was greater than 100 µM. For the same compound, the TGI [40] was greater than 100 µM, the TGI [41] was greater than 100 µM and the TGI [42] was greater than 100 µM. It also gave a TGI [43] greater than 100 µM, a TGI [44] greater than 100 µM and a TGI [45] greater than 100 µM. The TGI [46] was greater than 100 µM, the TGI [47] was greater than 100 µM and the TGI [48] was greater than 100 µM. For the same compound, the TGI [49] was greater than 100 µM, the TGI [50] was greater than 100 µM and the TGI [51] was greater than 100 µM. It also gave a TGI [52] greater than 100 µM, a TGI [53] greater than 100 µM and a TGI [54] greater than 100 µM. For the same compound, the TGI [55] was greater than 100 µM, the TGI [56] was greater than 100 µM and the TGI [57] was greater than 100 µM.

Compound `CC(=O)N(C(=O)CC(=O)N/N=C\c1ccc(Br)c(N(CCC#N)CCC#N)c1)c1ccc(Cl)cc1` has a TGI [1] greater than 100 µM, a TGI [2] greater than 100 µM and a TGI [3] greater than 100 µM. It also gave a TGI [4] greater than 100 µM, a TGI [5] greater than 100 µM and a TGI [6] greater than 100 µM. It also gave a TGI [7] greater than 100 µM, a TGI [8] greater than 100 µM and a TGI [11] greater than 100 µM. The TGI [12] was greater than 100 µM, the TGI [13] was greater than 100 µM and the TGI [14] was greater than 100 µM. It also gave a TGI [15] greater than 100 µM, a TGI [16] greater than 100 µM and a TGI [18] greater than 100 µM. The TGI [19] was greater than 100 µM, the TGI [20] was greater than 100 µM and the TGI [21] was greater than 100 µM. For the same compound, the TGI [22] was greater than 100 µM, the TGI [23] was greater than 100 µM and the TGI [24] was greater than 100 µM. It also gave a TGI [25] greater than 100 µM, a TGI [26] greater than 100 µM and a TGI [29] greater than 100 µM. For the same compound, the TGI [30] was greater than 100 µM, the TGI [31] was greater than 100 µM and the TGI [32] was greater than 100 µM. For the same compound, the TGI [33] was greater than 100 µM, the TGI [58] was greater than 100 µM and the TGI [34] was greater than 100 µM. The TGI [36] was 55.9 µM, the TGI [37] was greater than 100 µM and the TGI [38] was greater than 100 µM. It also gave a TGI [39] greater than 100 µM, a TGI [40] greater than 100 µM and a TGI [41] greater than 100 µM. The TGI [42] was greater than 100 µM, the TGI [43] was greater than 100 µM and the TGI [44] was greater than 100 µM. The TGI [59] was greater than 100 µM, the TGI [45] was greater than 100 µM and the TGI [46] was greater than 100 µM. For the same compound, the TGI [47] was greater than 100 µM, the TGI [48] was greater than 100 µM and the TGI [49] was greater than 100 µM. The TGI [50] was greater than 100 µM, the TGI [51] was greater than 100 µM and the TGI [52] was greater than 100 µM. For the same compound, the TGI [53] was greater than 100 µM, the TGI [54] was greater than 100 µM and the TGI [55] was greater than 100 µM. The TGI [56] was greater than 100 µM and the TGI [57] was greater than 100 µM.

`CC(C)c1ccccc1S(=O)c1ccccc1C(C)(C)O` (centres undefined) showed a TGI [1] greater than 100 µM, a TGI [2] greater than 100 µM and a TGI [3] greater than 100 µM. It also gave a TGI [4] greater than 100 µM, a TGI [5] of 48.1 µM and a TGI [6] greater than 100 µM. It also gave a TGI [7] greater than 100 µM, a TGI [8] greater than 100 µM and a TGI [9] greater than 100 µM. The TGI [10] was greater than 100 µM, the TGI [11] was greater than 100 µM and the TGI [12] was greater than 100 µM. For the same compound, the TGI [13] was greater than 100 µM, the TGI [14] was greater than 100 µM and the TGI [15] was greater than 100 µM. For the same compound, the TGI [16] was greater than 100 µM, the TGI [17] was greater than 100 µM and the TGI [18] was greater than 100 µM. The TGI [19] was greater than 100 µM, the TGI [20] was greater than 100 µM and the TGI [21] was greater than 100 µM. The TGI [22] was 40.8 µM, the TGI [23] was greater than 100 µM and the TGI [24] was greater than 100 µM. For the same compound, the TGI [25] was greater than 100 µM, the TGI [26] was greater than 100 µM and the TGI [27] was 81.5 µM. For the same compound, the TGI [28] was greater than 100 µM, the TGI [29] was greater than 100 µM and the TGI [30] was 41.8 µM. It also gave a TGI [31] greater than 100 µM, a TGI [32] greater than 100 µM and a TGI [33] greater than 100 µM. It also gave a TGI [58] greater than 100 µM, a TGI [34] of 39.1 µM and a TGI [35] greater than 100 µM. The TGI [36] was greater than 100 µM, the TGI [37] was greater than 100 µM and the TGI [38] was greater than 100 µM. For the same compound, the TGI [39] was greater than 100 µM, the TGI [41] was greater than 100 µM and the TGI [42] was greater than 100 µM. The TGI [43] was greater than 100 µM, the TGI [44] was greater than 100 µM and the TGI [59] was greater than 100 µM. The TGI [45] was greater than 100 µM, the TGI [46] was greater than 100 µM and the TGI [47] was greater than 100 µM. It also gave a TGI [48] greater than 100 µM, a TGI [49] greater than 100 µM and a TGI [50] greater than 100 µM. It also gave a TGI [51] of 48.7 µM, a TGI [53] greater than 100 µM and a TGI [54] greater than 100 µM. It also gave a TGI [55] greater than 100 µM, a TGI [56] greater than 100 µM and a TGI [57] greater than 100 µM.

`COc1cccc(CCn2c(N)c(-c3ccccc3)c3ccc([N+](=O)[O-])cc3c2=O)c1` gave a TGI [1] of 33.6 µM, a TGI [2] of 11.1 µM and a TGI [3] of 19.4 µM. The TGI [4] was 42 µM, the TGI [5] was 22.7 µM and the TGI [6] was 5.31 µM. For the same compound, the TGI [7] was 23.3 µM, the TGI [8] was 5.6 µM and the TGI [9] was 9.37 µM. The TGI [10] was 48.4 µM, the TGI [11] was 16 µM and the TGI [12] was 1.53 µM. The TGI [14] was greater than 79 µM, the TGI [15] was 5.93 µM and the TGI [16] was 4.3 µM. It also gave a TGI [17] of 40.8 µM, a TGI [18] of 31.6 µM and a TGI [19] of 5.25 µM. It also gave a TGI [20] of 21 µM, a TGI [21] of 29.6 µM and a TGI [22] of 5.34 µM. The TGI [23] was 5.21 µM, the TGI [24] was 53.7 µM and the TGI [25] was 15 µM. The TGI [26] was 16.7 µM, the TGI [27] was 19.3 µM and the TGI [29] was 23.4 µM. For the same compound, the TGI [30] was 11.7 µM, the TGI [31] was greater than 67.1 µM and the TGI [32] was 31.2 µM. For the same compound, the TGI [33] was 24.3 µM, the TGI [58] was 27.3 µM and the TGI [34] was 36.5 µM. It also gave a TGI [35] of 27.4 µM, a TGI [36] of 46.9 µM and a TGI [37] of 41 µM. The TGI [38] was 31.6 µM, the TGI [39] was 30 µM and the TGI [40] was 27.2 µM. It also gave a TGI [41] of 50 µM, a TGI [42] of 43.7 µM and a TGI [43] of 27.9 µM. It also gave a TGI [44] of 10 µM, a TGI [59] of 43 µM and a TGI [45] of 8.47 µM. It also gave a TGI [46] of 49.5 µM, a TGI [47] of 30.7 µM and a TGI [48] of 4.45 µM. It also gave a TGI [49] of 5 µM, a TGI [50] greater than 85.6 µM and a TGI [51] of 24.4 µM. It also gave a TGI [52] of 24.8 µM, a TGI [53] of 6.51 µM and a TGI [54] of 6.53 µM. The TGI [55] was 12.7 µM, the TGI [56] was 24.8 µM and the TGI [57] was 6.28 µM.
